According to PubChem BioAssay AID298 (DTP/NCI, 2004):
“And” between values parts separate entries of the source, which are not always exact repeats. Equal entries are not always repeated. Records with an inconclusive call do not appear.

Test system: MX-1 breast xenograft, intrarenal, nude mice, tumor weight
Experiment: NCI In Vivo Anticancer Drug Screen. Data for tumor model Human Mammary Carcinoma MX-1 Xenograft (intrarenal inoculation) in NU/NU BALB/C (nude) mice
Conditions: endpoint: mean tumor weight change, higher = larger tumour
Method in brief: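 Efficacy in vivo: tumor measurement or survival of treated animals divided by that of vehicle-dosed controls.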

[1] = dose: 150.0 mg/kg/injection, schedule: Q04DX003 (ip), vehicle: saline with Tween-80
[2] = dose: 300.0 mg/kg/injection, schedule: Q04DX003 (ip), vehicle: saline with Tween-80
[3] = dose: 150.0 mg/kg/injection, schedule: Q04DX003 (ip), vehicle: water
[4] = dose: 300.0 mg/kg/injection, schedule: Q04DX003 (ip), vehicle: water

O=NN(CCCl)C(=O)NC1CCCCC1
T/C (dose: 4.0 mg/kg/injection, schedule: Q01DX010 (ip), vehicle: saline with Tween-80): 303 % of control | T/C (dose: 8.0 mg/kg/injection, schedule: Q01DX010 (ip), vehicle: saline with Tween-80): 248 % of control | T/C (dose: 8.0 mg/kg/injection, schedule: Q01DX010 (sc), vehicle: saline with Tween-80): 71 % of control | T/C (dose: 12.5 mg/kg/injection, schedule: Q04DX003 (sc), vehicle: Klucel (hydroxypropylcellulose) (HPC)): 66 % of control | T/C (dose: 13.33 mg/kg/injection, schedule: Q04DX003 (ip), vehicle: saline with Tween-80): 105 % of control | T/C (dose: 16.0 mg/kg/injection, schedule: Q01DX010 (ip), vehicle: saline with Tween-80): 263 % of control | T/C (dose: 16.0 mg/kg/injection, schedule: Q01DX010 (sc), vehicle: saline with Tween-80): 61 % of control | T/C (dose: 25.0 mg/kg/injection, schedule: Q04DX003 (sc), vehicle: Klucel (hydroxypropylcellulose) (HPC)): 67 % of control | T/C (dose: 26.65 mg/kg/injection, schedule: Q04DX003 (ip), vehicle: saline with Tween-80): 36 % of control | T/C (dose: 26.66 mg/kg/injection, schedule: Q04DX003 (sc), vehicle: saline with Tween-80): 64 % of control | T/C (dose: 32.0 mg/kg/injection, schedule: Q01DX010 (ip), vehicle: saline with Tween-80): 8 % of control | T/C (dose: 32.0 mg/kg/injection, schedule: Q01DX010 (sc), vehicle: saline with Tween-80): 3 % of control | T/C (dose: 50.0 mg/kg/injection, schedule: Q04DX003 (sc), vehicle: Klucel (hydroxypropylcellulose) (HPC)): 31 % of control | T/C (dose: 53.3 mg/kg/injection, schedule: Q04DX003 (ip), vehicle: saline with Tween-80): 42 % of control | T/C (dose: 53.33 mg/kg/injection, schedule: Q04DX003 (sc), vehicle: saline with Tween-80): 31 % of control

CN(Cc1cnc2nc(N)nc(N)c2n1)c1ccc(C(=O)N[C@@H](CCC(=O)O)C(=O)O)cc1
T/C (dose: 3.0 mg/kg/injection, schedule: Q04DX003 (sc), vehicle: sodium bicarbonate): 152 % of control | T/C (dose: 6.0 mg/kg/injection, schedule: Q04DX003 (sc), vehicle: sodium bicarbonate): 162 % of control | T/C (dose: 12.0 mg/kg/injection, schedule: Q04DX003 (sc), vehicle: sodium bicarbonate): 112 % of control | T/C (dose: 18.0 mg/kg/injection, schedule: Q04DX003 (ip), vehicle: sodium bicarbonate): 55 % of control | T/C (dose: 24.0 mg/kg/injection, schedule: Q04DX003 (sc), vehicle: sodium bicarbonate): 80 % of control

CC(=O)Oc1c[nH]c(=O)[nH]c1=O
T/C (dose: 300.0 mg/kg/injection, schedule: Q04DX003 (sc), vehicle: distilled water + Tween-80): 116 % of control | T/C (dose: 600.0 mg/kg/injection, schedule: Q04DX003 (sc), vehicle: distilled water + Tween-80): 118 % of control | T/C (dose: 1200.0 mg/kg/injection, schedule: Q04DX003 (sc), vehicle: distilled water + Tween-80): 102 % of control | T/C (dose: 2400.0 mg/kg/injection, schedule: Q04DX003 (sc), vehicle: distilled water + Tween-80): 83 % of control

CC(=O)C1=C(O)C2(O)C(=O)c3c(c(C)c4ccc(C)c(O)c4c3O)CC2C(N)C1=O (stereo not given)
T/C (dose: 100.0 mg/kg/injection, schedule: Q04DX003 (sc), vehicle: saline): 89 % of control | T/C (dose: 200.0 mg/kg/injection, schedule: Q04DX003 (sc), vehicle: saline): 107 % of control | T/C (dose: 400.0 mg/kg/injection, schedule: Q04DX003 (sc), vehicle: saline): 98 % of control | T/C (dose: 800.0 mg/kg/injection, schedule: Q04DX003 (sc), vehicle: saline): 84 % of control

COC1=C(C)C(=O)C2=C(C1=O)C(CO)N1C(C#N)C3CC4C(C1C2N1CCOC41)N3C (stereo not given)
T/C (dose: 0.9 mg/kg/injection, schedule: Q04DX003 (ip), vehicle: acid diluted with saline): 55 % of control | T/C (dose: 1.25 mg/kg/injection, schedule: Q04DX003 (ip), vehicle: acid diluted with saline): 35 % of control | T/C (dose: 1.5 mg/kg/injection, schedule: Q04DX003 (ip), vehicle: acid diluted with saline): 19 % of control | T/C (dose: 2.5 mg/kg/injection, schedule: Q04DX003 (ip), vehicle: acid diluted with saline): 17 % of control and 19 % of control | T/C (dose: 2.5 mg/kg/injection, schedule: Q04DX003 (ip), vehicle: saline + alcohol): 50 % of control | T/C (dose: 5.0 mg/kg/injection, schedule: Q04DX003 (ip), vehicle: saline + alcohol): 42 % of control

N#CC(C#N)=C/C=C/c1cccc([N+](=O)[O-])c1
T/C (dose: 200.0 mg/kg/injection, schedule: Q01DX010 (sc), vehicle: Klucel (hydroxypropylcellulose) (HPC)): 176 % of control | T/C (dose: 400.0 mg/kg/injection, schedule: Q01DX010 (sc), vehicle: Klucel (hydroxypropylcellulose) (HPC)): 214 % of control

O=C(NNC(=O)c1cccc(C(=O)NNC(=O)c2ccc(Cl)c(Cl)c2)n1)c1ccc(Cl)c(Cl)c1
T/C (dose: 50.0 mg/kg/injection, schedule: Q04DX003 (ip), vehicle: saline with Tween-80): 106 % of control | T/C (dose: 100.0 mg/kg/injection, schedule: Q04DX003 (ip), vehicle: saline with Tween-80): 78 % of control | T/C [1]: 73 % of control | T/C (dose: 200.0 mg/kg/injection, schedule: Q04DX003 (ip), vehicle: saline with Tween-80): 98 % of control | T/C [2]: 64 % of control | T/C (dose: 400.0 mg/kg/injection, schedule: Q04DX003 (ip), vehicle: saline with Tween-80): 102 % of control | T/C (dose: 600.0 mg/kg/injection, schedule: Q04DX003 (ip), vehicle: saline with Tween-80): 65 % of control

COc1cc2c(oc(=O)c3cc(C)cc(OC)c32)c2c(C3OC(C)C(O)C(C)(O)C3O)ccc(O)c12 (stereo not given)
T/C (dose: 12.5 mg/kg/injection, schedule: Q04DX003 (ip), vehicle: DMSO): 97 % of control and 106 % of control | T/C (dose: 50.0 mg/kg/injection, schedule: Q04DX003 (ip), vehicle: DMSO): 48 % of control and 63 % of control

CN(C)CCC(=O)C(=Cc1ccc(O)cc1)C(=O)CCN(C)C
T/C (dose: 75.0 mg/kg/injection, schedule: Q04DX003 (ip), vehicle: saline): 90 % of control | T/C (dose: 150.0 mg/kg/injection, schedule: Q04DX003 (ip), vehicle: saline): 124 % of control

CC(=O)OCC1OC(n2cc(CBr)nn2)C(OC(C)=O)C(OC(C)=O)C1OC(C)=O (stereo not given)
T/C (dose: 25.0 mg/kg/injection, schedule: Q01DX010 (sc), vehicle: saline with Tween-80): 92 % of control | T/C (dose: 50.0 mg/kg/injection, schedule: Q01DX010 (sc), vehicle: saline with Tween-80): 94 % of control | T/C (dose: 100.0 mg/kg/injection, schedule: Q01DX010 (sc), vehicle: saline with Tween-80): 95 % of control | T/C (dose: 200.0 mg/kg/injection, schedule: Q01DX010 (sc), vehicle: saline with Tween-80): 87 % of control

CNC(=O)O/N=C(\CN=[N+]=[N-])C(C)(C)C
T/C (dose: 0.63 mg/kg/injection, schedule: Q04DX003 (sc), vehicle: saline): 116 % of control | T/C (dose: 1.25 mg/kg/injection, schedule: Q04DX003 (sc), vehicle: saline): 71 % of control | T/C (dose: 2.5 mg/kg/injection, schedule: Q04DX003 (sc), vehicle: saline): 84 % of control

CC(=O)NO
T/C [3]: 78 % of control | T/C [4]: 113 % of control | T/C (dose: 600.0 mg/kg/injection, schedule: Q04DX003 (ip), vehicle: water): 79 % of control | T/C (dose: 1200.0 mg/kg/injection, schedule: Q04DX003 (ip), vehicle: water): 74 % of control

Cc1ccc2c(c1)n([O-])c1cc(Cl)ccc1[n+]2=O
T/C [1]: 84 % of control and 86 % of control | T/C [2]: 56 % of control and 66 % of control

COC(=O)NC1C(C)OC(OC2C/C=C(/C)C3C=CC4C(OC5CC(OC6CC(OC7CC(O)C(O)C(C)O7)C(OC7CC(O)C(OC)C(C)O7)C(C)O6)C(O)C(C)O5)C(C)CC(C)C4C3(C)/C(O)=C3\C(=O)OC4(CC(C)C(CO)=CC4/C=C\2C)C3=O)CC1(C)[N+](=O)[O-] (stereo not given)
T/C (dose: 75.0 mg/kg/injection, schedule: Q04DX003 (ip), vehicle: water): 198 % of control | T/C [3]: 120 % of control | T/C [4]: 73 % of control

O=C1CN(CCN2CC(=O)N(CN3CCOCC3)C(=O)C2)CC(=O)N1CN1CCOCC1
T/C [3]: 56 % of control | T/C [4]: 58 % of control

N=C(N)c1ccc(N=NNc2ccc(C(=N)N)cc2)cc1
T/C [1]: 83 % of control

COc1ccc(C=C(C(=O)CCN(C)C)C(=O)CCN(C)C)cc1
T/C (dose: 50.0 mg/kg/injection, schedule: Q04DX003 (ip), vehicle: saline): 93 % of control | T/C (dose: 100.0 mg/kg/injection, schedule: Q04DX003 (ip), vehicle: saline): 101 % of control | T/C (dose: 200.0 mg/kg/injection, schedule: Q04DX003 (ip), vehicle: saline): 96 % of control

CCOC1=Cc2c(oc3c(C(C)(C)C)cc(OCC)cc23)OC(C(C)(C)C)=C1
T/C (dose: 37.5 mg/kg/injection, schedule: Q04DX003 (sc), vehicle: saline with Tween-80): 94 % of control | T/C (dose: 75.0 mg/kg/injection, schedule: Q04DX003 (sc), vehicle: saline with Tween-80): 98 % of control | T/C (dose: 150.0 mg/kg/injection, schedule: Q04DX003 (sc), vehicle: saline with Tween-80): 121 % of control | T/C (dose: 300.0 mg/kg/injection, schedule: Q04DX003 (sc), vehicle: saline with Tween-80): 92 % of control and 111 % of control | T/C (dose: 600.0 mg/kg/injection, schedule: Q04DX003 (sc), vehicle: saline with Tween-80): 77 % of control | T/C (dose: 2400.0 mg/kg/injection, schedule: Q04DX003 (sc), vehicle: saline with Tween-80): 73 % of control
